Results as given in patent US20050203063A1, “Proteasome pathway inhibitors and related methods” (priority 2003, published 2005).

Experiments:
26S proteasomes [1] = biological target: T1, 26S proteasomes; test: Deubiquitination of UbSic1 by epoxomicin-treated purified 26S proteasomes; assay type: biochemical, S. cerevisiae; details: titration, epoxomicin-treated proteasomes
T1 construct: IC50, deubiquitination of UbSic1; other: titration, epoxomicin-treated proteasomes; other: 5 μM C92
Protocol: (§1) FIG. 2. […] (A) Degradation of UbSic1. Purified 26S proteasomes were preincubated in the presence or absence of test compounds. UbSic1 was then added, and degradation assayed as described (6). Py mock refers to the pyridine solvent in which C23 was dissolved which was marginally inhibitory, unlike the 50% DMSO vehicle used for other test compounds. (B) Deubiquitination of UbSic1. […] UbSic1 was then added, and deubiquitination was assayed as described (6). (C) Titration curve with varying concentrations of C92 to determine half-maximal inhibition of deubiquitination. (D) C92 inhibits binding of UbSic1 to 26S proteasomes. Purified 26S proteasomes immobilized on anti-Flag beads were incubated with UbSic1 in the presence or absence of C92 as described (6). Following binding, beads were washed and analyzed by immunoblotting with anti-Sic1 polyclonal serum. (E) Binding of UbSic1 to the polyUb binding proteins Rpn10 and Rad23 is inhibited by C92. Recombinant Gst-Rpn10 and Gst-Rad23 (1 μg each) were immobilized on glutathione sepharose beads and then incubated with UbSic1 in the presence or absence of C92. Following binding, beads were washed and analyzed by immunoblotting. (F) C92 interacts with multiUb chains. Equivalent amounts (5 μg) of purified Gst, Gst-fusion protein or multiUb chains were incubated with C92 or C1 before being loaded on a 5% native polyacryamide gel. Electrophoresis was performed as described (33). (G) C92 and C59 interact specifically with K48-linked Ub on native gels. Ub (16 μM), K48-linked diUb (8 μM), or tetraUb chains (8 μM) were preincubated with a two fold-molar excess (monoUb and diUb), or equivalent amounts (tetraUb) of test compounds before being resolved on native gels as in (G). Tetra K29Ub, K48Ub, and K63Ub refer to tetraubiquitin chains wherein the ubiquitins are linked via K29, K48, or K63.
FIG. 5. […] Assays were performed and evaluated as summarized in the legend to FIG. 2B. The metal chelating reagent phenanthroline is designated as “P”, and “Py” refers to the pyridine solvent that is used as the solvent for C23. (B) Titration curve for C59. (C) Inhibition of binding of ubiquitin conjugates to Gst-Rpn10 by C92 and C59, but not other compounds. The experiment was performed as described for FIG. 2E.
(§2) 26S proteasomes were purified from S. cerevisiae cells expressing a Flag-tagged proteasomal subunit (PRE1) essentially as described (28).
Reactions were processed as above.

Gst-Rpn10 = biological target: T2, Gst-Rpn10 (Saccharomyces cerevisiae, UniProt P38886); test: Binding of UbSic1 to Gst-Rpn10 on glutathione sepharose beads
T2 construct: made in house
T2 sequence (P38886 1-268): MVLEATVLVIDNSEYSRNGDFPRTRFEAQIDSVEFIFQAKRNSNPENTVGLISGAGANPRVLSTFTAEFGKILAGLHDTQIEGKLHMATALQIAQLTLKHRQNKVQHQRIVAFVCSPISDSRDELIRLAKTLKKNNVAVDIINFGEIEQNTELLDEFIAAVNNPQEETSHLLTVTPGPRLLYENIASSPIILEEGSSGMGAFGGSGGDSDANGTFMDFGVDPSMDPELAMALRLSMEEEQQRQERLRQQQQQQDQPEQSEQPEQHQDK
Protocol: as §1, with “(F) C92 interacts with multiUb chains. Equivalent amounts (5 μg) of purified Gst, Gst-fusion protein or multiUb chains were incubated with C92 or C1 before being loaded on a 5% native polyacryamide gel. Electrophoresis was performed as described (33). (G) C92 and C59 interact specifically with K48-linked Ub on native gels. Ub (16 μM), K48-linked diUb (8 μM), or tetraUb chains (8 μM) were preincubated with a two fold-molar excess (monoUb and diUb), or equivalent amounts (tetraUb) of test compounds before being resolved on native gels as in (G). Tetra K29Ub, K48Ub, and K63Ub refer to tetraubiquitin chains wherein the ubiquitins are linked via K29, K48, or K63.” left out
FIG. 5. […] Assays were performed and evaluated as summarized in the legend to FIG. 2B. […]
Recombinant Gst-Rpn10 and Gst-Rad23 were immobilized on glutathione sepharose beads. […] Aliquots were analyzed by immunoblotting.

[2] = biological target: T3, K29-linked ubiquitin chains (Homo sapiens, UniProt P0CG47); test: Native gel mobility shift of ubiquitin chains; assay type: binding; details: tetraUb, equivalent amount of compound
T3 construct: tetraubiquitin chains wherein the ubiquitins are linked via K29, K48, or K63
Protocol: as §1
(§3) Selective recognition of the multiubiquitin chain by the 26S proteasome constitutes the first step in UbSic1 degradation (9). Applicants therefore assayed the binding of UbSic1 to 26S proteasomes pre-treated with C92. […] Previous work by applicants has shown that multiubiquitin chain receptors Rad23 and Rpn10 serve a redundant role in sustaining UbSic1 degradation in vitro and in vivo (14). In the absence of the ubiquitin-binding activity of Rpn10, UbSic1 is not recruited, deubiquitinated, or degraded by purified 26S proteasomes. Thus, to further establish the mechanism by which C92 inhibited binding of UbSic1 conjugates to the proteasome, applicants tested whether C92 could interfere with binding of UbSic1 to recombinant Rpn10 and Rad23. […] To distinguish whether C92 inhibited proteolysis by binding to proteasome receptor proteins or to the Ub chain on Sic 1, applicants exploited the negative charge of C92 to determine whether compound binding induced a mobility shift of the target proteins on native gels. C92 was pre-incubated with recombinant Rpn10, Rad23, or a mixture of Ub chains containing 2-7 Ub molecules. […] Remarkably, the binding of C92 and C59 to ubiquitin chains was exquisitely linkage specific. Ubiquitin molecules can be linked to each other in vivo through different internal lysines, including K29, K48, and K63(19). The K48-linked chain is the principal targeting signal in proteolysis whereas K63-linked chains are implicated in enzyme regulation; no physiological function for K29-linked chains has yet been discovered (20).

[3] = biological target: T4, K48-linked ubiquitin chains (Homo sapiens, UniProt P0CG47); test: Native gel mobility shift of ubiquitin chains; assay type: binding; details: for native gel mobility of K48-linked ubiquitin chains: diUb with two fold-molar excess, tetraUb with equivalent amount of compound
T4 construct: a mixture of Ub chains containing 2-7 Ub molecules
Protocol: as §1, §3

[4] = biological target: T5, K63-linked ubiquitin chains (Homo sapiens, UniProt P0CG47); test: Native gel mobility shift of ubiquitin chains; assay type: binding; details: tetraUb, equivalent amount of compound
T5 construct: tetraubiquitin chains wherein the ubiquitins are linked via K29, K48, or K63
Protocol: as §1, §3

26S proteasomes [5] = biological target: T6, 26S proteasomes (Saccharomyces cerevisiae, UniProt P38886+P43588); test: 26S proteasome integrity on native gel (Coomassie Blue); assay type: biochemical; details: concentrations that inhibit ubiquitin-dependent proteolysis
T6 construct: 26S proteasomes were purified from S. cerevisiae cells expressing a Flag-tagged proteasomal subunit (PRE1); made in house; host or cells: S. cerevisiae cells expressing Flag-tagged PRE1
T6 sequence (P43588 whole entry, one chain of several): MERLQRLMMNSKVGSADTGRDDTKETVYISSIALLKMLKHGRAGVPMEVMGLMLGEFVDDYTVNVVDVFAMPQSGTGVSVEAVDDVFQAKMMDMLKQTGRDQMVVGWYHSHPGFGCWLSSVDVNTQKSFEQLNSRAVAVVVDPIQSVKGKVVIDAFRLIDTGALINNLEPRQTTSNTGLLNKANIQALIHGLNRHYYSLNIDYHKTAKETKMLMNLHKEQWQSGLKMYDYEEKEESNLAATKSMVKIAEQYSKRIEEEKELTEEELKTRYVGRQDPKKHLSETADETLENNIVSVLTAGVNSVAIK
Protocol: FIG. 6. […] (A) Purified 26S proteasomes were preincubated with test compounds before being resolved on a native gel. Following electrophoresis, the gel was stained with Coomassie Blue. […] Same as (A), except that following electrophoresis, the gel was incubated with fluorescent substrate to determine peptidase activity, which was visualized using a UV transilluminator (9). […] (C) Untreated 26S proteasomes were resolved on a native gel. Following electrophoresis, the gel was incubated with the peptidase substrate in the presence of ubistatin.
as §2

Compound | IC50 (26S proteasomes [1]) [µM] | inhibition of binding of UbSic1 to Rpn10 (Gst-Rpn10) | native gel mobility of K29-linked chains [2] | native gel mobility of K48-linked ubiquitin chains [3] | native gel mobility of K63-linked chains [4] | effect on 26S proteasome integrity / assembly (26S proteasomes [5]) | native gel mobility of multiUb chains ([3]; mixture of Ub chains containing 2-7 Ub molecules)
O=S(=O)(O)c1ccc2cc3c(cc2c1)NN(c1ccc(/C=C/c2ccc(N4Nc5cc6ccc(S(=O)(=O)O)cc6cc5N4)cc2S(=O)(=O)O)c(S(=O)(=O)O)c1)N3 [Compound 59] | 1 | abrogated binding | little or no effect | efficiently shifted | little or no effect | without affecting | 
O=C(Nc1ccc(/C=C/c2ccc(NC(=O)c3cc(S(=O)(=O)O)c4cccnc4c3O)cc2S(=O)(=O)O)c(S(=O)(=O)O)c1)c1cc(S(=O)(=O)O)c2cccnc2c1O [Compound 92] | ~0.4 | abolished binding | little or no effect | efficiently shifted | little or no effect | without affecting | bound Ub chains
